Usually IC50 stands for the concentration at which inhibition is half-maximal.

For 43 molecules, IC50 results are on record in patent US20250304537A1 (Repare Therapeutics Inc., priority 2022, published 2025).

Structures are written as SMILES.

The test system of one assay is PKMYT1 (CDK1 pThr14) in FUOV1 cells. As to the kind of experiment: PKMYT1 cell-based activity assay, CDK1 pThr14 AlphaLISA in FUOV1 cells. To be noted: 2 h, 2 h compound incubation, read-out: FUOV-1 CDK1 pThr14 IC50. Here is the method:
To determine compound IC50 (PKMYT1 cell-based activity assay, CDK1 pThr14 AlphaLISA), FUOV1 cells were plated into a 96-well TC-treated culture plate at 50000 cells/well in a final volume of 100 μL of media. The plates were then allowed to equilibrate in a biological safety cabinet for 30 minutes before being placed in a humidified incubator at 37 C and 5% CO2 overnight. The next day, 2 μL of PKMYT1 inhibitors or DMSO were diluted in 400 μL of warmed culture media in a 96-well block using a Biomek FX liquid handler. Compounds were mixed in media and then 25 μL was dispensed into each well of the 96-well cell plate. Plates were centrifuged at 300 g for 10 seconds and then placed in the incubator for 2 hours. After the 2-hour incubation with compound, media was removed via aspiration using a multichannel pipette. 30 μL of 1× AlphaLISA lysis buffer (Perkin Elmer) supplemented with protease and phosphatase inhibitors as well as 1 mM PMSF, was added to each well. Plates were rotated at 500 g for 20 minutes to facilitate lysis. Plates were then sealed with aluminum foil and frozen at −80° C. for at least 1 hour. Lysates were thawed at 37° C. for 10 minutes, then 10 μL of each lysate was transferred in duplicate to a white 384-well assay plate. Antibody mixture was prepared in 1× AlphaLISA assay buffer (Perkin Elmer) containing antibodies (5 nM final concentration for rabbit pThr14-CDK1 from Abcam #ab58509 and mouse total CDK1 from ThermoFisher Scientific #33-1800). 5 μL of antibody mixture was added to each well of the assay plate. The assay plate was sealed and stored at 4° C. overnight. The next day, AlphaLISA bead mixture (Perkin Elmer) was prepared in 1× AlphaLISA assay buffer. Anti-rabbit IgG Acceptor (Perkin Elmer #AL104C) and anti-mouse IgG Donor beads (Perkin Elmer #AS104D) were prepared to a concentration of 80 μg/ml in assay buffer. 5 μL of bead mixture was added to each well of the assay plate (20 μg/ml final concentration for each bead). The plate was protected from light and incubated for 2 hours at room temperature. After a 2-hour incubation with beads, the plate was read using the Perkin Elmer EnVision Multimode plate reader with excitation at 680 nm and emission at 615 nm.
On the technique in general: Alpha assays give light when donor and acceptor beads are brought close together.
`Cc1ccc2[nH]ncc2c1-c1nc(-c2ccc(F)cc2Nc2ccnc(C)c2C)nc(C(N)=O)c1N` [Compound 584]: the IC50 amounted to 18 nM.

In the case of `Cc1ccc2[nH]ncc2c1-c1nc(-c2ccc(Cl)nc2Nc2ncccc2F)nc(C(N)=O)c1N` [Compound 781], the concentration for half-maximal inhibition (IC50) came out at 5 nM.

Consider `Cc1ccc(-c2nc(C(N)=O)c(N)c(-c3c(C)ccc4[nH]ncc34)n2)c(Nc2cncc(Cl)n2)n1` [Compound 725], for which the IC50 was found to be 474 nM.

For the molecule `COc1ccnc(Nc2cc(F)ccc2-c2nc(C(N)=O)c(N)c(-c3c(C)ccc4[nH]ncc34)n2)n1` [Compound 570], the IC50 amounted to 111 nM. Still for that read-out and setting: to `Cc1ccnc(Nc2c(C)cccc2-c2nc(C(N)=O)c(N)c(-c3c(C)ccc4[nH]ncc34)n2)n1` [Compound 775] belongs 2600 nM. On the same count and under the same terms, to `Cc1ccc(O)c(C)c1-c1nc(-c2cc(F)cnc2NCC(F)F)nc(C(N)=O)c1N` [Compound 700, 5-amino-2-(2-((2,2-difluoroethyl)amino)-5-fluoropyridin-3-yl)-6-(3-hydroxy-2,6-dimethylphenyl)pyrimidine-4-carboxamide] belongs 9 nM; to `Cc1cnc(C)c(Nc2cc(C#N)ccc2-c2nc(C(N)=O)c(N)c(-c3c(C)ccc4[nH]ncc34)n2)n1` [Compound 750], 73 nM; to `Cc1ccnc(Nc2ncccc2-c2nc(C(N)=O)c(N)c(-c3c(C)ccc4[nH]ncc34)n2)c1C` [Compound 738], 383 nM. On the same count and under the same terms, as for `Cc1ccc(O)c(C)c1-c1nc(-c2cccnc2Nc2nccnc2C)nc(C(N)=O)c1N` [Compound 727, 5-amino-6-(3-hydroxy-2,6-dimethylphenyl)-2-(2-((3-methylpyrazin-2-yl)amino)pyridin-3-yl)pyrimidine-4-carboxamide], the figure is 3 nM; as for `Cc1ccc2[nH]ncc2c1-c1nc(-c2ccc(F)cc2Nc2nnccc2C#N)nc(C(N)=O)c1N` [Compound 539], 20 nM. Take `Cc1ccc2[nH]ncc2c1-c1nc(-c2ccc(C#N)nc2Nc2ncccn2)nc(C(N)=O)c1N` [Compound 745]: the IC50 was found to be 140 nM. As for `Cc1ccc2[nH]ncc2c1-c1nc(-c2cccnc2NC[C@@H]2CCCOC2)nc(C(N)=O)c1N` [Compound 651], the IC50 amounted to 130 nM.

Turning to `Cc1ccc2[nH]ncc2c1-c1nc(-c2cccnc2NC2CC(=O)N(C)C2)nc(C(N)=O)c1N` (stereo not shown) [Compound 552], the IC50 was determined as 245 nM. Still for that read-out and setting: as for `COc1ccc(-c2nc(C(N)=O)c(N)c(-c3c(C)ccc4[nH]ncc34)n2)c(Nc2ncccn2)c1` [Compound 636], the figure is 97 nM. Still for that read-out and setting: as for `Cc1ccc(F)c(Nc2ncccc2-c2nc(C(N)=O)c(N)c(-c3c(C)cc(F)c4[nH]ncc34)n2)n1` [Compound 773], the figure is 6 nM; as for `Cc1ccnc(Nc2c(F)cccc2-c2nc(C(N)=O)c(N)c(-c3c(C)ccc4[nH]ncc34)n2)n1` [Compound 776, 5-amino-2-(3-fluoro-2-((4-methylpyrimidin-2-yl)amino)phenyl)-6-(5-methyl-1H-indazol-4-yl)pyrimidine-4-carboxamide], 1130 nM; as for `Cc1ccc2[nH]ncc2c1-c1nc(-c2ccc(C#N)cc2Nc2ncccc2F)nc(C(N)=O)c1N` [Compound 739], 9 nM. For `Cc1ccnc(Nc2cc(F)ccc2-c2nc(C(N)=O)c(N)c(-c3c(C)ccc4[nH]ncc34)n2)n1` [Compound 534], the IC50 was found to be 87 nM. Same read-out and setting: as for `COc1cnnc(Nc2cc(F)ccc2-c2nc(C(N)=O)c(N)c(-c3c(C)ccc4[nH]ncc34)n2)c1` [Compound 566], the figure is 76 nM.

As to `Cc1ccc2[nH]ncc2c1-c1nc(-c2ccc(F)nc2Nc2ncccn2)nc(C(N)=O)c1N` [Compound 758], the IC50 is 83 nM. As to `Cc1ccc2[nH]ncc2c1-c1nc(-c2ccc(F)cc2Nc2cncnc2)nc(C(N)=O)c1N` [Compound 541, 5-amino-2-(4-fluoro-2-(pyrimidin-5-ylamino)phenyl)-6-(5-methyl-1H-indazol-4-yl)pyrimidine-4-carboxamide], the IC50 was 47 nM.

With `COCCOc1ccc2oc3c(C(N)=O)c(N)c(-c4c(C)ccc5[nH]ncc45)cc3c2n1` [Compound 556], the IC50 was determined as 132 nM.

Regarding `Cc1ccc2[nH]ncc2c1-c1nc(-c2cccnc2NC[C@H]2CCO2)nc(C(N)=O)c1N` [Compound 649], the IC50 was > 10000 nM. `Cc1ccc2[nH]ncc2c1-c1nc(-c2cccnc2Nc2nc(F)ccc2F)nc(C(N)=O)c1N` [Compound 660]: the IC50 was 2 nM.

The assay is the same for the next values; noted with them: 2 h, 2 h incubation, read-out: FUOV-1 CDK1 pThr14 IC50.
`Cc1ccc2[nH]ncc2c1-c1cc(-c2ccnc(OCc3ccco3)n2)nc(C(N)=O)c1N` [Compound 213]: the IC50 worked out at 404 nM.

The same assay, now with this note: 2 h, 2 hours with compound, read-out: FUOV-1 CDK1 pThr14 IC50.
For `NC(=O)c1nc(-c2cccnc2NCC(F)(F)F)nc(-c2c(Cl)ccc3[nH]ncc23)c1N` [Compound 912], the IC50 was 178 nM.

`Cc1c(F)cc2[nH]ncc2c1-c1nc(-c2ccc(C(F)F)nc2Nc2ncccc2F)nc(C(N)=O)c1N` [Compound 855]: the IC50 came out at 13 nM. For the molecule `NC(=O)c1nc(-c2ccc(F)cc2Nc2ncccn2)nc(-c2c(Cl)ccc3[nH]ncc23)c1N` [Compound 949], the IC50 was 50 nM. The same measure, in the same setting: as for `Cc1ccc2[nH]ncc2c1-c1nc(-c2ccc(Cl)nc2Nc2ncccc2C(F)F)nc(C(N)=O)c1N` [Compound 944], the figure is 28 nM; as for `CCc1ccc(-c2nc(C(N)=O)c(N)c(-c3c(C)ccc4[nH]ncc34)n2)c(Nc2ncccc2F)n1` [Compound 975], 14 nM; as for `Cn1cc(-c2nc(C(N)=O)c(N)c(-c3c(Cl)ccc4[nH]ncc34)n2)c(NC2CCOCC2)n1` [Compound 915], 164 nM. `Cc1ccc2[nH]ncc2c1-c1nc(-c2cc(F)cnc2N[C@@H]2CCOCC2(F)F)nc(C(N)=O)c1N` [Compound 883]: the IC50 amounted to 36 nM. On the same count and under the same terms, to `[2H]C([2H])([2H])c1ccc2[nH]ncc2c1-c1nc(-c2ccc(Cl)nc2Nc2ncccn2)nc(C(N)=O)c1N` [Compound 946] belongs 51 nM.

Turning to `Cc1ccc2[nH]ncc2c1-c1nc(-c2cc(F)cnc2N[C@H]2CC[C@H](O)C2)nc(C(N)=O)c1N` [Compound 812], the IC50 was determined as 26 nM.

As to `Cc1ccc2[nH]ncc2c1-c1nc(-c2ccc(Cl)nc2Nc2cccnn2)nc(C(N)=O)c1N` [Compound 832], the IC50 stood at 217 nM. The same measure, in the same setting: as for `Cc1ccc2[nH]ncc2c1-c1nc(-c2cc(F)cnc2N[C@H]2COC[C@H]2O)nc(C(N)=O)c1N` [Compound 815], the figure is 511 nM; as for `Cc1ccc2[nH]ncc2c1-c1nc(-c2cc(F)cnc2N[C@@H]2CC[C@@H](O)C2)nc(C(N)=O)c1N` [Compound 851], 44 nM. With `N#Cc1cccnc1Nc1cc(F)ccc1-c1nc(C(N)=O)c(N)c(-c2c(F)ccc3[nH]ncc23)n1` [Compound 968], the IC50 amounted to 4 nM.

As to `Cc1cc(F)c2[nH]ncc2c1-c1nc(-c2ccc(F)cc2Nc2ncccc2C#N)nc(C(N)=O)c1N` [Compound 880], the IC50 was determined as 8 nM. The same measure, in the same setting: to `Cc1ccc2[nH]ncc2c1-c1nc(-c2ccc(F)cc2N[C@H]2C[C@@H](O)C2)nc(C(N)=O)c1N` [Compound 860] belongs 232 nM; to `Cc1c(F)cc2[nH]ncc2c1-c1nc(-c2ccc(F)cc2Nc2ncccc2C#N)nc(C(N)=O)c1N` [Compound 865], 10 nM.

The assay is the same for the next values; noted with them: 2 h incubation, read-out: FUOV-1 CDK1 pThr14 IC50.
In the case of `Cc1ccc(O)c(C)c1-c1nc(-c2ccnnc2)cc(C(N)=O)c1N` [Compound 77], the IC50 was 179 nM.

The same assay, now with this note: 2 hours with compound, read-out: FUOV-1 CDK1 pThr14 IC50.
In the case of `Cc1ccc2[nH]ncc2c1-c1nc(-c2cc(F)cnc2N[C@@H]2C[C@@H]3CC[C@H]2O3)nc(C(N)=O)c1N` [Compound 890], the IC50 is 81 nM.
